Measured values taken from ChEMBL document CHEMBL4265889, “Design and synthesis of tetrahydropyridopyrimidine based Toll-Like Receptor (TLR) 7/8 dual agonists” (Bioorg Med Chem Lett, 2018).

Tests used:
[1] = biological target: T1, Toll-like receptor 8 (Homo sapiens) (UniProt Q9NR97); test: Agonist activity at human TLR8 expressed in HEK293 cells after 6 hrs by NFkappaB-luciferase reporter gene assay; format: cell-based
T1 sequence (whole entry): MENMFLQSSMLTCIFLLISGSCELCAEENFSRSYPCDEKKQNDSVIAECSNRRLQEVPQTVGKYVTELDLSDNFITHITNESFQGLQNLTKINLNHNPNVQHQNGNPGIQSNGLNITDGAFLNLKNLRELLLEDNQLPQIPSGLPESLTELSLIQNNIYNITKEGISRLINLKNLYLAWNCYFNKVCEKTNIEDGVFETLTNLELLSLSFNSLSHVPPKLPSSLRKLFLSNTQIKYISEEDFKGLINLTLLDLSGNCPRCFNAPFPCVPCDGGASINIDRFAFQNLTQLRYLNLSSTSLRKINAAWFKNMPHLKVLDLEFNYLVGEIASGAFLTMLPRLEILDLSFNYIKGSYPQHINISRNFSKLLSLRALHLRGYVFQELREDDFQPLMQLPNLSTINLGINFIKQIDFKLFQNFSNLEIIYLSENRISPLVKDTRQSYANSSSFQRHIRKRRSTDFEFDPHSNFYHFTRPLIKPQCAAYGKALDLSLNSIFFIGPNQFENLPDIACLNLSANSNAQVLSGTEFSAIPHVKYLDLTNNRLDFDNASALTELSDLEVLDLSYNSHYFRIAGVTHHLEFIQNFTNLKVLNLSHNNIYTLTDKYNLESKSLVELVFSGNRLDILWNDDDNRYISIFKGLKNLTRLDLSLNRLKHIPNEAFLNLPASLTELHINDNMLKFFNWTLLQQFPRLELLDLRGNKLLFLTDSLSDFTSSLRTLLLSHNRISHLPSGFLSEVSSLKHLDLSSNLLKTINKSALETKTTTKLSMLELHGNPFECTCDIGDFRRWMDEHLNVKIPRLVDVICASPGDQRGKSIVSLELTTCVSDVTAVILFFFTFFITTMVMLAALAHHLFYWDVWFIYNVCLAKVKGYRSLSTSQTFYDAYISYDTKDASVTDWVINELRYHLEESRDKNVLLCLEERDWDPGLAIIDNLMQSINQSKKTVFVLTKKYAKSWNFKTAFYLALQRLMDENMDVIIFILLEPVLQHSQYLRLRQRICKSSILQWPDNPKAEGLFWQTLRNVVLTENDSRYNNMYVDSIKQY

[2] = biological target: T2, Toll-like receptor 7 (Homo sapiens) (UniProt Q9NYK1); test: Agonist activity at human TLR7 expressed in HEK293 cells after 6 hrs by NFkappaB-luciferase reporter gene assay; format: cell-based
T2 sequence (whole entry): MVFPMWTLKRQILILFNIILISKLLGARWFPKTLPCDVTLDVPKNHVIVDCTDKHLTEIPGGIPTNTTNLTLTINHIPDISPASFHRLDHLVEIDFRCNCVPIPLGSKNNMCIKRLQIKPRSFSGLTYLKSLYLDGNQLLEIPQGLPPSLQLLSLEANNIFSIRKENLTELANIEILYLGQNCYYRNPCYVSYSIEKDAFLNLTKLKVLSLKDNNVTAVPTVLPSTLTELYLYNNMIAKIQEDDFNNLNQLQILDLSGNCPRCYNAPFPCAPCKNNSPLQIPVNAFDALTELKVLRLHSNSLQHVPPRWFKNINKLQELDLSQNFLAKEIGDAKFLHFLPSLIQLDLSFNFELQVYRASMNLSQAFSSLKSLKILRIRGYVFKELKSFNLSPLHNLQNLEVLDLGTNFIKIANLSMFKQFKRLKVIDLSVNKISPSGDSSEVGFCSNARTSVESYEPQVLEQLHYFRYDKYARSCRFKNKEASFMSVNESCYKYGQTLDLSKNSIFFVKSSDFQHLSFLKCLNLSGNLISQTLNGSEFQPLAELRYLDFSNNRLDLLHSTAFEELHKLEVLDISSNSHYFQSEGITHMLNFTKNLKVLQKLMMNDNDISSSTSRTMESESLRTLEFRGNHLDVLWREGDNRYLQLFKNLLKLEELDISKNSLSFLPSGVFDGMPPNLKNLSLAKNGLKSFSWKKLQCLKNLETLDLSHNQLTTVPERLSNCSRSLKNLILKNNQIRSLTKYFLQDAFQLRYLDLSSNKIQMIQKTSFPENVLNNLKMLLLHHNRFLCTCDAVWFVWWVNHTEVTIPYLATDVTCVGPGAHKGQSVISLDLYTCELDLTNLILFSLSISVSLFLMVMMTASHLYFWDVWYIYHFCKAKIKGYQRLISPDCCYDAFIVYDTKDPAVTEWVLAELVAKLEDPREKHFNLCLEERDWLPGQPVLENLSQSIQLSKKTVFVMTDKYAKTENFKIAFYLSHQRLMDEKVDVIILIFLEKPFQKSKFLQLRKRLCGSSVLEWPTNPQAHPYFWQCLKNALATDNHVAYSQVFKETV

[3] = Cytotoxicity against HEK293 cells transfected with the CMV-TLR7 construct assessed as reduction in cell viability after 6 hrs by ATPlite assay; format: cell-based; conditions: human
[4] = species: Homo sapiens; test: Selectivity index, ratio of MEC for human TLR8 to MEC for human TLR7
[5] = biological target: Voltage-gated inwardly rectifying potassium channel KCNH2 (Homo sapiens, UniProt Q12809); test: Displacement of 3H-dofetilide from human ERG
Sequence of Voltage-gated inwardly rectifying potassium channel KCNH2 (Q12809 whole entry): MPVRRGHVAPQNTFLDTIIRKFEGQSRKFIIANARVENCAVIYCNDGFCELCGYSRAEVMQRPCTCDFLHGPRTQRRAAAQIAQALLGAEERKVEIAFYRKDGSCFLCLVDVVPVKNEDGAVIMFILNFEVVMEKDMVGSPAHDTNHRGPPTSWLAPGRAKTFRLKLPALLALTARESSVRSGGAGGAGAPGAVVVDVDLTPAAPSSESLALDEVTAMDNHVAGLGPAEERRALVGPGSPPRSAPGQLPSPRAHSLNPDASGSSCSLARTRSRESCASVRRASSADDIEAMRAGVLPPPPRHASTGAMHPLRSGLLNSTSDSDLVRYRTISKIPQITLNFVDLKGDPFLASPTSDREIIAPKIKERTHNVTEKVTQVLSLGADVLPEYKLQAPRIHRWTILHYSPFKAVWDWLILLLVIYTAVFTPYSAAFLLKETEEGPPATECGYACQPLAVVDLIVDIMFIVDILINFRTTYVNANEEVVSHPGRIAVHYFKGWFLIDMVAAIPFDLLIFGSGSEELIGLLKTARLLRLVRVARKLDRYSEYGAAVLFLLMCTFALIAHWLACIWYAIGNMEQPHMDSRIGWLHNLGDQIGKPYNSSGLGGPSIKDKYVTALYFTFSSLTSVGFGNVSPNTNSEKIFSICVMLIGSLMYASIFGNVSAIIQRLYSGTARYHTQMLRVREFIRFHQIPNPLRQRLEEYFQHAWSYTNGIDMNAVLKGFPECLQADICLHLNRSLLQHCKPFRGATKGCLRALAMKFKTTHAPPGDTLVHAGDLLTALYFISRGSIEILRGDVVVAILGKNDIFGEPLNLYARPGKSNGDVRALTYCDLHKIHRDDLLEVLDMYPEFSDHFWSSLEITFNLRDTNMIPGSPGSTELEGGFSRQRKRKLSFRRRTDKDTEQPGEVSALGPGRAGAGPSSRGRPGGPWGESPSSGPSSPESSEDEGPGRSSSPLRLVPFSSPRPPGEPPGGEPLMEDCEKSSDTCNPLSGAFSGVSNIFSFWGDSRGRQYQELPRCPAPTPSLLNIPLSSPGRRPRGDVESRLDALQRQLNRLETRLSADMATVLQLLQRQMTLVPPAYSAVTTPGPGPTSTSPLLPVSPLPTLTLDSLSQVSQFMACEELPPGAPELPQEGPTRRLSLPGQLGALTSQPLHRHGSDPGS

[6] = biological target: T2, Toll-like receptor 7 (Homo sapiens); test: Agonist activity at TLR7 in human PBMC assessed as suppression of HCV replicon replication in human HuH7 luc/neo cells harboring RNA encoding bicistronic expression construct comprising wild type HCV type 1b NS3-NS5B regions exposed to conditioned media from compound treated PBMCs after 24 hrs by luciferase reporter gene assay; format: cell-based
[7] = Drug metabolism in human liver microsomes at 1 uM after 15 mins; format: ADME, microsome; conditions: read-out: Drug metabolism
[8] = Drug metabolism in mouse liver microsomes at 1 uM after 15 mins; format: ADME, microsome; conditions: read-out: Drug metabolism

**Q.** Which MEC [1] does the source give for `CCCCNc1nc(N)nc2c1CCN(C(=O)c1ccccc1)C2` here?
**A.** The MEC was 0.8 µM.

**Q.** What about the MEC [2] of the same molecule?
**A.** The MEC was 3.9 µM.

**Q.** And the CC50 at 6 h [3]?
**A.** The CC50 at 6 h was over 24 µM.

**Q.** And the Selectivity Index [4]?
**A.** The Selectivity Index was 5.

**Q.** What does the source list for `CCC[C@@H](CCO)Nc1nc(N)nc2c1CN(C(=O)c1cccs1)CC2`?
**A.** IC50 [5]: 7.6 µM; MEC [6]: 0.2 µM; MEC [1]: 1.1 µM; MEC [2]: 0.2 µM; CC50 at 6 h [3]: > 24 µM; metabolised at 0.25 h, 1 µM [7]: 22%; metabolised at 0.25 h, 1 µM [8]: 73%

**Q.** Which IC50 [5] does the source give for `CCCCNc1nc(N)nc2c1CN(C(=O)c1csc(C)n1)CC2` here?
**A.** The IC50 was 1.3 µM.

**Q.** And the MEC [6]?
**A.** Its MEC is 0.53 µM.

**Q.** And the MEC [1]?
**A.** The MEC was 1.8 µM.

**Q.** And the MEC [2]?
**A.** Its MEC is 2 µM.

**Q.** What about the CC50 at 6 h [3] of the same molecule?
**A.** Its CC50 at 6 h is over 24 µM.

**Q.** And the metabolised at 0.25 h, 1 µM [8]?
**A.** Its metabolised at 0.25 h, 1 µM is 88%.

**Q.** Which IC50 [5] does the source give for `CCCC[C@@H](CCO)Nc1nc(N)nc2c1CN(C(=O)c1csc(C)n1)CC2` here?
**A.** Its IC50 is over 50 µM.

**Q.** What about the MEC [6] of the same molecule?
**A.** Its MEC is 0.2 µM.

**Q.** And the MEC [1]?
**A.** The MEC was 6.6 µM.

**Q.** What about the MEC [2] of the same molecule?
**A.** Its MEC is 1 µM.

**Q.** And the CC50 at 6 h [3]?
**A.** Its CC50 at 6 h is over 24 µM.

**Q.** And the metabolised at 0.25 h, 1 µM [7]?
**A.** Its metabolised at 0.25 h, 1 µM is 30%.

**Q.** And the metabolised at 0.25 h, 1 µM [8]?
**A.** The metabolised at 0.25 h, 1 µM was 71%.

**Q.** Which results are given for `CCCC[C@@H](CCO)Nc1nc(N)nc2c1CN(C(=O)c1cccs1)CC2`?
**A.** IC50 [5]: 6.9 µM; MEC [6]: 0.2 µM; MEC [1]: 1.7 µM; MEC [2]: 0.2 µM; CC50 at 6 h [3]: > 24 µM; metabolised at 0.25 h, 1 µM [7]: 37%; metabolised at 0.25 h, 1 µM [8]: 90%
